In brackets after ≈: the same amount, converted by molar mass.
Test system: Mycobacterium tuberculosis
Assay: Antitubercular activity against Mycobacterium tuberculosis H37Rv assessed as bacterial growth inhibition by MABA relative to control
Assay type: functional

| SMILES | MIC [µg/mL] |
| --- | --- |
| Nc1nc(-c2ccc(N3C(=O)CCC3=O)cc2)cs1 | 6.25 (≈ 22.9 µM) |
| O=C(Nc1ccc(-c2csc(N/C=C\c3cccc(Cl)c3)n2)cc1)c1ccccc1 | 25 (≈ 57.9 µM) |
| O=C(Nc1ccc(-c2csc(N/C=C\c3ccc(F)cc3)n2)cc1)c1ccccc1 | 12.5 (≈ 30.1 µM) |
| Nc1nc(-c2ccc(NC(=O)c3ccccc3)cc2)cs1 | 50 (≈ 169 µM) |
| CO[C@H]1/C=C/O[C@@]2(C)Oc3c(C)c(O)c4c(O)c(c(/C=N/N5CCN(C)CC5)c(O)c4c3C2=O)NC(=O)/C(C)=C\C=C\[C@H](C)[C@H](O)[C@@H](C)[C@@H](O)[C@@H](C)[C@H](OC(C)=O)[C@@H]1C [RIFAMPIN] | 0.8 (≈ 0.972 µM) |
| O=C1CCC(=O)N1c1ccc(-c2csc(N/C=C\c3ccc(O)cc3)n2)cc1 | 100 (≈ 255 µM) |
| O=C1c2ccccc2C(=O)N1c1ccc(-c2csc(N/C=C\c3ccccc3[N+](=O)[O-])n2)cc1 | 25 (≈ 53.4 µM) |
| COc1cc(/C=C\Nc2nc(-c3ccc(N4C(=O)CCC4=O)cc3)cs2)cc(OC)c1OC | 25 (≈ 53.7 µM) |
| O=C(Nc1ccc(-c2csc(N/C=C\c3ccccc3[N+](=O)[O-])n2)cc1)c1ccccc1 | 6.25 (≈ 14.1 µM) |
| NC(=O)c1cnccn1 [PYRAZINAMIDE] | 3.12 (≈ 25.4 µM) |
| Nc1nc(-c2ccc(N3C(=O)c4ccccc4C3=O)cc2)cs1 | 12.5 (≈ 38.9 µM) |
| O=C(Nc1ccc(-c2csc(N/C=C\c3ccc(O)cc3)n2)cc1)c1ccccc1 | 6.25 (≈ 15.1 µM) |
| COc1cc(/C=C\Nc2nc(-c3ccc(NC(=O)c4ccccc4)cc3)cs2)cc(OC)c1OC | 25 (≈ 51.3 µM) |
| CN[C@@H]1[C@H](O[C@H]2[C@H](O[C@H]3[C@H](O)[C@@H](O)[C@H](N=C(N)N)[C@@H](O)[C@@H]3N=C(N)N)O[C@@H](C)[C@]2(O)C=O)O[C@@H](CO)[C@H](O)[C@H]1O [STREPTOMYCIN] | 0.8 (≈ 1.38 µM) |
| NNC(=O)c1ccncc1 [ISONIAZID] | 1.6 (≈ 11.7 µM) |
| O=C(O)c1cn(C2CC2)c2cc(N3CCNCC3)c(F)cc2c1=O [CIPROFLOXACIN] | 3.12 (≈ 9.43 µM) |
| COc1cc(/C=C\Nc2nc(-c3ccc(N4C(=O)c5ccccc5C4=O)cc3)cs2)cc(OC)c1OC | 6.25 (≈ 12.2 µM) |
| CC[C@@H](CO)NCCN[C@@H](CC)CO [ETHAMBUTOL] | 3.2 (≈ 15.7 µM) |
| O=C1CCC(=O)N1c1ccc(-c2csc(N/C=C\c3ccc(F)cc3)n2)cc1 | 12.5 (≈ 31.8 µM) |
| O=C1CCC(=O)N1c1ccc(-c2csc(N/C=C\c3ccccc3[N+](=O)[O-])n2)cc1 | 100 (≈ 238 µM) |
| O=C1CCC(=O)N1c1ccc(-c2csc(N/C=C\c3cccc(Cl)c3)n2)cc1 | 25 (≈ 61 µM) |
